The structures appear in SMILES notation. Values after ≈ are worked out from the molar mass of the structure shown. A value given as a limit tells only on which side of the number the result lay.

Our source for the MIC values is patent US8217029B2, “Oxazolidinone antibiotics” (Actelion Pharmaceuticals Ltd, priority 2007, dated 2012).

The test system of this assay is S aureus A798. Nature of the assay: Minimal inhibitory concentration (MIC), microdilution method in cation-adjusted Mueller-Hinton Broth following NCCLS guidelines. The assay is classed as cell-based. Particulars: pH of test medium 7.2-7.3. The procedure, abridged: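 Broth microdilution per NCCLS M7-A4 in cation-adjusted Mueller-Hinton broth at pH 7.2-7.3; MIC reported in mg/l.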
On the technique in general: Dilution methods test growth across graded concentrations, often in twofold steps.
Compound `COc1ccc2ncnc(N3CCN(CC4CN(c5ccc6c(c5)OCCO6)C(=O)O4)CC3)c2c1` (racemic) [Example 6, (RS)-3-(2,3-Dihydro-benzo[1,4]dioxin-6-yl)-5-[4-(6-methoxy-quinazolin-4-yl)-piperazin-1-ylmethyl]-oxazolidin-2-one] registered an MIC of at most 0.031 mg/L.

With `COc1ccc2nccc(N3CC(N(C)C[C@@H]4CN(c5ccc(Br)c(C)c5)C(=O)O4)C3)c2n1` [Example 143, (R)-3-(4-Bromo-3-methyl-phenyl)-5-({[1-(6-methoxy-[1,5]naphthyridin-4-yl)-azetidin-3-yl]-methyl-amino}-methyl)-oxazolidin-2-one], the MIC is at most 0.031 mg/L.

For the compound `COc1ccc2ncnc(N3CC(NC[C@@H]4CN(c5ccc6c(c5)NC(=O)CS6)C(=O)O4)C3)c2c1` [Example 55, 6-((R)-5-{[1-(6-Methoxy-quinazolin-4-yl)-azetidin-3-ylamino]-methyl}-2-oxo-oxazolidin-3-yl)-4H-benzo[1,4]thiazin-3-one], the MIC was at most 0.031 mg/L.

In turn, `O=C1CSc2ccc(N3C[C@@H](CNC4CN(c5ccnc6ccc(F)cc56)C4)OC3=O)cc2N1` [Example 160, 6-((R)-5-{[1-(6-Fluoro-quinolin-4-yl)-azetidin-3-ylamino]-methyl}-2-oxo-oxazolidin-3-yl)-4H-benzo[1,4]thiazin-3-one] showed an MIC of at most 0.031 mg/L. In the case of `COc1ccc2ncc(F)c(N3CC[C@H](NC[C@H]4CN(c5ccc6c(c5)NC(=O)CS6)C(=O)O4)C3)c2n1` [Example 164, 6-((S)-5-{[(S)-1-(3-Fluoro-6-methoxy-[1,5]naphthyridin-4-yl)-pyrrolidin-3-ylamino]methyl}-2-oxo-oxazolidin-3-yl)-4H-benzo[1,4]thiazin-3-one], the MIC was at most 0.031 mg/L.

The compound `COc1ccc2nccc(N3CC(N(C)C[C@@H]4CN(c5ccc(F)c(Cl)c5)C(=O)O4)C3)c2n1` [Example 136, (R)-3-(3-Chloro-4-fluoro-phenyl)-5-({[1-(6-methoxy-[1,5]naphthyridin-4-yl)-azetidin-3-yl]-methyl-amino}-methyl)-oxazolidin-2-one] showed an MIC of 0.25 mg/L (≈ 0.53 µM). In turn, `COc1ccc2nccc(N3CC(N(C)C[C@@H]4CN(c5cccc(N(C)C)c5)C(=O)O4)C3)c2n1` [Example 140, (R)-3-(3-Dimethylamino-phenyl)-5-({[1-(6-methoxy-[1,5]naphthyridin-4-yl)-azetidin-3-yl]-methyl-amino}-methyl)-oxazolidin-2-one] gave an MIC of 0.25 mg/L (≈ 0.54 µM). Compound `COc1ccc2nccc(N3CCN(C[C@@H]4CN(c5ccc(Br)c(C)c5)C(=O)O4)CC3)c2n1` [Example 31, (R)-3-(4-Bromo-3-methyl-phenyl)-5-[4-(6-methoxy-[1,5]naphthyridin-4-yl)-piperazin-1-ylmethyl]-oxazolidin-2-one] had an MIC of at most 0.031 mg/L. In turn, `COc1ccc2nccc(N3CC(NC[C@H]4CN(c5ccc6c(c5)NC(=O)CS6)C(=O)O4)C3)c2n1` [Example 57, 6-((S)-5-{[1-(6-Methoxy-[1,5]naphthyridin-4-yl)-azetidin-3-ylamino]-methyl}-2-oxo-oxazolidin-3-yl)-4H-benzo[1,4]thiazin-3-one] returned an MIC of at most 0.031 mg/L. `COc1ccc2nccc(N3CCN(C[C@@H]4CN(c5ccc(Br)c(F)c5)C(=O)O4)CC3)c2n1` [Example 13, (R)-3-(4-Bromo-3-fluoro-phenyl)-5-[4-(6-methoxy-[1,5]naphthyridin-4-yl)-piperazin-1-ylmethyl]-oxazolidin-2-one]: the MIC was at most 0.031 mg/L. The compound `COc1ccc2nccc(N3CCN(C[C@@H]4CN(c5ccc(OC(F)F)cc5)C(=O)O4)CC3)c2n1` [Example 20, (R)-3-(4-Difluoromethoxy-phenyl)-5-[4-(6-methoxy-[1,5]naphthyridin-4-yl)-piperazin-1-ylmethyl]-oxazolidin-2-one] gave an MIC of at most 0.031 mg/L. As for `COc1ccc2nccc(N3CCN(C[C@@H]4CN(c5ccc(F)c(C)c5)C(=O)O4)CC3)c2n1` [Example 30, (R)-3-(4-Fluoro-3-methyl-phenyl)-5-[4-(6-methoxy-[1,5]naphthyridin-4-yl)-piperazin-1-ylmethyl]-oxazolidin-2-one], the MIC stood at 0.125 mg/L (≈ 0.277 µM). On to `COc1ccc2ncc(F)c(C3(O)CCN(C[C@@H]4CN(c5ccc6c(c5)NC(=O)CS6)C(=O)O4)CC3)c2n1` [Example 126, 6-{(R)-5-[4-(3-Fluoro-6-methoxy-[1,5]naphthyridin-4-yl)-4-hydroxy-piperidin-1-ylmethyl]-2-oxo-oxazolidin-3-yl}-4H-benzo[1,4]thiazin-3-one], for which the MIC was at most 0.031 mg/L. In the case of `COc1ccc2nccc(N3CC(NC[C@@H]4CN(c5ccc6c(c5)NC(=O)CO6)C(=O)O4)C3)c2n1` [Example 52, 6-((R)-5-{[1-(6-Methoxy-[1,5]naphthyridin-4-yl)-azetidin-3-ylamino]-methyl}-2-oxo-oxazolidin-3-yl)-4H-benzo[1,4]oxazin-3-one], the MIC is at most 0.031 mg/L. Next, `COc1ccc2ncc(F)c(N3CCN(C[C@@H]4CN(c5ccc6c(c5)NC(=O)CO6)C(=O)O4)CC3)c2n1` [Example 97, 6-{(R)-5-[4-(3-Fluoro-6-methoxy-[1,5]naphthyridin-4-yl)-piperazin-1-ylmethyl]-2-oxo-oxazolidin-3-yl}-4H-benzo[1,4]oxazin-3-one]: at most 0.031 mg/L; `CCOc1ccc(N2C[C@@H](CN[C@H]3CCN(c4c(F)cnc5ccc(OC)nc45)C3)OC2=O)cc1` [Example 170, (R)-3-(4-Ethoxy-phenyl)-5-{[(S)-1-(3-fluoro-6-methoxy-[1,5]naphthyridin-4-yl)-pyrrolidin-3-ylamino]-methyl}-oxazolidin-2-one]: 0.25 mg/L (≈ 0.519 µM). Consider `COc1ccc2nccc(N3C[C@@H](NC[C@@H]4CN(c5ccc6c(c5)NC(=O)CS6)C(=O)O4)[C@H](OC)C3)c2n1` (relative stereo) [Example 75, 6-((R)-5-{[(3R*,4R*)-4-Methoxy-1-(6-methoxy-[1,5]naphthyridin-4-yl)-pyrrolidin-3-ylamino]-methyl}-2-oxo-oxazolidin-3-yl)-4H-benzo[1,4]thiazin-3-one], for which the MIC was at most 0.031 mg/L.

The compound `COc1ccc2nccc(N3CCN(C[C@@H]4CN(c5cccc(C#N)c5)C(=O)O4)CC3)c2n1` [Example 21, 3-{(R)-5-[4-(6-Methoxy-[1,5]naphthyridin-4-yl)-piperazin-1-ylmethyl]-2-oxo-oxazolidin-3-yl}-benzonitrile] gave an MIC of 0.25 mg/L (≈ 0.562 µM). Next, `COc1ccc2nccc(N3CCCN(C[C@H]4CN(c5ccc6c(c5)NC(=O)CS6)C(=O)O4)CC3)c2n1` [Example 166, 6-{(S)-5-[4-(6-Methoxy-[1,5]naphthyridin-4-yl)-[1,4]diazepan-1-ylmethyl]-2-oxo-oxazolidin-3-yl}-4H-benzo[1,4]thiazin-3-one]: at most 0.031 mg/L; `COc1ccc2nccc(N3CCN(C[C@@H]4CN(c5cccc(C(F)(F)F)c5)C(=O)O4)CC3)c2n1` [Example 16, (R)-5-[4-(6-Methoxy-[1,5]naphthyridin-4-yl)-piperazin-1-ylmethyl]-3-(3-trifluoromethyl-phenyl)-oxazolidin-2-one]: 0.25 mg/L (≈ 0.513 µM). With `COc1ccc2nccc(N3CCN(C[C@H]4CN(c5ccc6c(c5)OCCO6)C(=O)O4)CC3)c2n1` [Example 37, (S)-3-(2,3-Dihydro-benzo[1,4]dioxin-6-yl)-5-[4-(6-methoxy-[1,5]naphthyridin-4-yl)-piperazin-1-ylmethyl]-oxazolidin-2-one], the MIC turned out to be 0.063 mg/L (≈ 0.132 µM). In turn, `COc1ccc2nccc(N3CC(N(C)C[C@@H]4CN(c5ccc6c(c5)NC(=O)CS6)C(=O)O4)C3)c2n1` [Example 56, 6-[(R)-5-({[1-(6-Methoxy-[1,5]naphthyridin-4-yl)-azetidin-3-yl]-methyl-amino}-methyl)-2-oxo-oxazolidin-3-yl]-4H-benzo[1,4]thiazin-3-one] came in with an MIC of at most 0.031 mg/L.

For the compound `COc1ccc2nccc(N3CC[C@@H]4CN(C[C@@H]5CN(c6ccc7c(c6)OCCO7)C(=O)O5)C[C@@H]43)c2n1` (mixture of isomers) [Example 90, (R)-3-(2,3-Dihydro-benzo[1,4]dioxin-6-yl)-5-{[(3aR*,6aR*)-1-(6-methoxy-[1,5]naphthyridin-4-yl)-hexahydro-pyrrolo[3,4-b]pyrrol-5-yl]-methyl}-oxazolidin-2-one], 4 mg/L was the least that counted as inhibitory (MIC). As to `COc1ccc2ncc(F)c(N3CC(NC[C@@H]4CN(c5ccc(C)c(F)c5)C(=O)O4)C3)c2n1` [Example 46, (R)-5-{[1-(3-Fluoro-6-methoxy-[1,5]naphthyridin-4-yl)-azetidin-3-ylamino]-methyl}-3-(3-fluoro-4-methyl-phenyl)-oxazolidin-2-one], the MIC was at most 0.031 mg/L.

For the compound `COc1ccc2nccc(N3CC[C@@H](CNC[C@@H]4CN(c5ccc6c(c5)NC(=O)CS6)C(=O)O4)C3)c2c1` [Example 173, 6-[(R)-5-({[(S)-1-(6-Methoxy-quinolin-4-yl)-pyrrolidin-3-ylmethyl]-amino}-methyl)-2-oxo-oxazolidin-3-yl]-4H-benzo[1,4]thiazin-3-one], the MIC was at most 0.031 mg/L. `COc1ccc2nccc(N3CCN(C[C@@H]4CN(c5ccc(OC)c(C(F)(F)F)c5)C(=O)O4)CC3)c2n1` [Example 33, (R)-5-[4-(6-Methoxy-[1,5]naphthyridin-4-yl)-piperazin-1-ylmethyl]-3-(4-methoxy-3-trifluoromethyl-phenyl)-oxazolidin-2-one] showed a minimal inhibitory concentration (MIC) of 4 mg/L (≈ 7.73 µM). `COc1ccc2nccc(N3C[C@H]4CCN(C(=O)[C@@H]5CN(c6ccc7c(c6)OCCO7)C(=O)O5)[C@H]4C3)c2n1` (mixture of isomers) [Example 95, (S)-3-(2,3-Dihydro-benzo[1,4]dioxin-6-yl)-5-[(3aR*,6aR*)-5-(6-methoxy-[1,5]naphthyridin-4-yl)-hexahydro-pyrrolo[3,4-b]pyrrole-1-carbonyl]-oxazolidin-2-one] gave a minimum inhibitory concentration (MIC) of 0.125 mg/L. In turn, `COc1ccc2nccc(N3CCN(C[C@@H]4CN(c5ccc(C)c(F)c5)C(=O)O4)CC3)c2n1` [Example 36, (R)-3-(3-Fluoro-4-methyl-phenyl)-5-[4-(6-methoxy-[1,5]naphthyridin-4-yl)-piperazin-1-ylmethyl]-oxazolidin-2-one] displayed an MIC of at most 0.031 mg/L.

Turning to `COc1ccc2nccc(N3CCC(NC[C@H]4CN(c5ccc6c(c5)NC(=O)CS6)C(=O)O4)CC3)c2n1` [Example 165, 6-((S)-5-{[1-(6-Methoxy-[1,5]naphthyridin-4-yl)-piperidin-4-ylamino]-methyl}-2-oxo-oxazolidin-3-yl)-4H-benzo[1,4]thiazin-3-one], the MIC was at most 0.031 mg/L.

For orientation: MIC means the smallest concentration in the dilution series that meets the test's criterion for growth inhibition.
